Source: patent publication US20130142831A1, “COMPOUNDS FOR INFLAMMATION AND IMMUNE-RELATED USES” (Synta Pharmaceuticals Corp., priority 2004, published 2013)

Tested on: IL-2 production
Experiment: Inhibition of IL-2 production in PHA-activated Jurkat cells
Assay type: cell-based
Details: Homo sapiens, PHA 2.5 μg/mL, 20 hours, bins given in nM
Experimental: Jurkat cells were placed in a 96 well plate (0.5 million cells per well in 1% FBS medium) then test compounds of this invention were added at different concentrations. After 10 minutes, the cells were activated with PHA (final concentration 2.5 μg/mL) and incubated for 20 hours at 37° C. under CO2. The final volume was 200 μL. Following incubation, the cells were centrifuged and the supernatants collected and stored at −70° C. prior to assaying for IL-2 production. A commercial kit (IL-2 Eli-pair, Diaclone Research, Besancon, France) was used to detect production of IL-2, from which dose response curves were obtained. The IC50 value was calculated as the concentration at which. 50% of maximum IL-2 production after stimulation was inhibited versus a non-stimulation control.

SMILES | IC50
COc1ccc2c(c1)nc(C(F)(F)F)n2-c1ccc(NC(=O)c2c(F)c(F)c(F)c(F)c2F)cc1 [Compound 97, 2,3,4,5,6-Pentafluoro-N-[4-(2-trifluoromethyl-5-methoxy-benzoimidazol-1-yl)-phenyl]-benzamide] | < 100 nM
O=C(Nc1ccc(-n2c(C(F)(F)F)nc3cc(O)ccc32)cc1)c1cccc(F)c1F [Compound 99, 2,3-Difluoro-N-[4-(2-trifluoromethyl-5-hydroxy-benzoimidazol-1-yl)-phenyl]-benzamide] | < 100 nM
COc1ccc2c(c1)nc(C(F)(F)F)n2-c1ccc(NC(=O)c2cc(F)ccc2F)cc1 [Compound 100, 2,5-Difluoro-N-[4-(2-trifluoromethyl-5-methoxy-benzoimidazol-1-yl)-phenyl]-benzamide] | < 100 nM
COc1ccc2c(c1)nc(C(F)(F)F)n2-c1ccc(NC(=O)c2c(Cl)cccc2Cl)cc1 [Compound 102, 2,6-Dichloro-N-[4-(2-trifluoromethyl-5-methoxy-benzoimidazol-1-yl)-phenyl]-benzamide] | < 100 nM
COc1ccc2c(c1)nc(C(F)(F)F)n2-c1ccc(NC(=O)C2CCCC2)cc1 [Compound 105, N-[4-(2-trifluoromethyl-5-methoxy-benzoimidazol-1-yl)-phenyl]-cyclopentanecarboxylic acid amide] | < 100 nM
COc1ccc2c(c1)nc(C(F)(F)F)n2-c1ccc(NC(=O)c2cccc(Cl)c2)cc1 [Compound 109, 3-Chloro-N-[4-(2-trifluoromethyl-5-methoxy-benzoimidazol-1-yl)-phenyl]-benzamide] | < 100 nM
COc1ccc2c(c1)nc(C(F)(F)F)n2-c1ccc(NC(=O)c2ccccc2)cc1 [Compound 111, N-[4-(2-trifluoromethyl-5-methoxy-benzoimidazol-1-yl)-phenyl]-benzamide] | < 100 nM
CC(C)Oc1ccc2c(c1)nc(C(F)(F)F)n2-c1ccc(NC(=O)c2cccc(F)c2F)cc1 [Compound 112, 2,3-Difluoro-N-[4-(2-trifluoromethyl-5-isopropoxy-benzoimidazol-1-yl)-phenyl]-benzamide] | < 100 nM
NC(=O)c1ccc2c(c1)nc(C(F)(F)F)n2-c1ccc(NC(=O)c2cccc(F)c2F)cc1 [Compound 113, 2,3-Difluoro-N-[4-(2-trifluoromethyl-5-carbamoyl-benzoimidazol-1-yl)-phenyl]-benzamide] | < 100 nM
COc1ccc2c(c1)nc(C(F)(F)F)n2-c1ccc(NC(=O)c2ccccc2I)cc1 [Compound 115, 2-Iodo-N-[4-(2-trifluoromethyl-5-methoxy-benzoimidazol-1-yl)-phenyl]-benzamide] | < 100 nM
CC(=O)Oc1ccc2c(c1)nc(C(F)(F)F)n2-c1ccc(NC(=O)c2cccc(F)c2F)cc1 [Compound 132, 2,3-Difluoro-N-[4-(2-trifluoromethyl-5-acetoxy-benzoimidazol-1-yl)-phenyl]-benzamide] | < 100 nM

More lines, now with the values ahead:

IC50 | SMILES
< 100 nM | COC(=O)c1ccc2c(c1)nc(C(F)(F)F)n2-c1ccc(NC(=O)c2cccc(F)c2F)cc1 [Compound 96, 2-Trifluoromethyl-1-[4-(2,3-difluoro-benzoylamimo)-phenyl]-1H-benzoimidazole-5-carboxylic acid methyl ester]
< 100 nM | COc1ccc2c(c1)nc(C(F)(F)F)n2-c1ccc(NC(=O)c2ccc(F)cc2F)cc1 [Compound 98, 2,4-Difluoro-N-[4-(2-trifluoromethyl-5-methoxy-benzoimidazol-1-yl)-phenyl]-benzamide]
< 100 nM | COc1ccc2c(c1)nc(C(F)(F)F)n2-c1ccc(NC(=O)c2cccc(C#N)c2)cc1 [Compound 101, 3-Cyano-N-[4-(2-trifluoromethyl-5-methoxy-benzoimidazol-1-yl)-phenyl]-benzamide]
< 100 nM | COc1ccc2c(c1)nc(C(F)(F)F)n2-c1ccc(NC(=O)c2ccccc2Br)cc1 [Compound 104, 2-Bromo-N-[4-(2-trifluoromethyl-5-methoxy-benzoimidazol-1-yl)-phenyl]-benzamide]
< 100 nM | COc1ccc2c(c1)nc(C(F)(F)F)n2-c1ccc(NC(=O)C2CCCCC2)cc1 [Compound 106, N-[4-(2-trifluoromethyl-5-methoxy-benzoimidazol-1-yl)-phenyl]-cyclohexanecarboxylic acid amide]
< 100 nM | COc1ccc2c(c1)nc(C(F)(F)F)n2-c1ccc(NC(=O)c2ccccc2[N+](=O)[O-])cc1 [Compound 107, 2-Nitro-N-[4-(2-trifluoromethyl-5-methoxy-benzoimidazol-1-yl)-phenyl]-benzamide]
< 100 nM | COc1ccc2c(c1)nc(C(F)(F)F)n2-c1ccc(NC(=O)c2ccc(Cl)cc2)cc1 [Compound 108, 4-Chloro-N-[4-(2-trifluoromethyl-5-methoxy-benzoimidazol-1-yl)-phenyl]-benzamide]
< 100 nM | COc1ccc2c(c1)nc(C(F)(F)F)n2-c1ccc(NC(=O)c2ccc(F)c(F)c2)cc1 [Compound 110, 3,4-Difluoro-N-[4-(2-trifluoromethyl-5-methoxy-benzoimidazol-1-yl)-phenyl]-benzamide]
< 100 nM | COc1ccc2c(c1)nc(C(F)(F)F)n2-c1ccc(NC(=O)c2ccncc2)cc1 [Compound 114, N-[4-(2-trifluoromethyl-5-methoxy-benzoimidazol-1-yl)-phenyl]-isonicotinamide]
< 100 nM | COc1ccc2c(c1)nc(C(F)(F)F)n2-c1ccc(NC(=O)CC(C)C)cc1 [Compound 116, 3-Methyl-N-[4-(2-trifluoromethyl-5-methoxy-benzoimidazol-1-yl)-phenyl]-butyramide]
< 100 nM | COc1ccc2c(c1)nc(C(F)(F)F)n2-c1ccc(NC(=O)c2cc(Cl)cc(Cl)c2)cc1 [Compound 117, 3,5-Dichloro-N-[4-(2-trifluoromethyl-5-methoxy-benzoimidazol-1-yl)-phenyl]-benzamide]
< 100 nM | COc1ccc2c(c1)nc(C(F)(F)F)n2-c1ccc(NC(=O)c2cccc(Br)c2)cc1 [Compound 118, 3-Bromo-N-[4-(2-trifluoromethyl-5-methoxy-benzoimidazol-1-yl)-phenyl]-benzamide]
< 100 nM | COc1ccc2c(c1)nc(C(F)(F)F)n2-c1ccc(NC(=O)c2ccc(Br)cc2)cc1 [Compound 119, 4-Bromo-N-[4-(2-trifluoromethyl-5-methoxy-benzoimidazol-1-yl)-phenyl]-benzamide]

Same assay, conditions: Homo sapiens, PHA 2.5 μg/mL, 20 hours, bins given with μM limit

SMILES | IC50
COc1ccc2c(c1)nc(C(F)(F)F)n2-c1ccc(NC(=O)c2ccco2)cc1 [Compound 120, Furan-2-carboxylic acid {N-[4-(2-trifluoromethyl-5-methoxy-benzoimidazol-1-yl)-phenyl]}-amide] | > 1000 nM
CCOC(=O)CCC(=O)Nc1ccc(-n2c(C(F)(F)F)nc3cc(OC)ccc32)cc1 [Compound 125, N-[4-(2-trifluoromethyl-5-methoxy-benzoimidazol-1-yl)-phenyl]-succinamic acid ethyl ester] | > 1000 nM
COc1ccc2c(c1)nc(C(F)(F)F)n2-c1ccc(NC(=O)c2ccccc2OC)cc1 [Compound 128, 2-Methoxy-N-[4-(2-trifluoromethyl-5-methoxy-benzoimidazol-1-yl)-phenyl]-benzamide] | > 1000 nM
COc1ccc2c(c1)nc(C(F)(F)F)n2-c1ccc(NC(=O)c2cc(C(F)(F)F)cc(C(F)(F)F)c2)cc1 [Compound 129, 3,5-Di-(trifluoromethyl)-N-[4-(2-trifluoromethyl-5-methoxy-benzoimidazol-1-yl)-phenyl]-benzamide] | > 1000 nM
COc1ccc(OC)c(C(=O)Nc2ccc(-n3c(C(F)(F)F)nc4cc(OC)ccc43)cc2)c1 [Compound 130, 2,5-Dimethoxy-N-[4-(2-trifluoromethyl-5-methoxy-benzoimidazol-1-yl)-phenyl]-benzamide] | > 1000 nM
COc1ccc2c(c1)nc(C(F)(F)F)n2-c1ccc(NC(=O)Cc2ccc(OC)c(OC)c2)cc1 [Compound 131, 2-(3,4-dimethoxy-phenyl)-N-[4-(2-trifluoromethyl-5-methoxy-benzoimidazol-1-yl)-phenyl]-acetamide] | > 1000 nM

Results, then the compound that gave them:

IC50 | SMILES
> 1000 nM | COc1ccc2c(c1)nc(C(F)(F)F)n2-c1ccc(NC(=O)C2CCCN2C(=O)C(F)(F)F)cc1 (stereo not drawn) [Compound 121, 1-(2,2,2-Trifluoroacetyl)-N-[4-(2-trifluoromethyl-5-methoxy-benzoimidazol-1-yl)-phenyl]-pyrrolidine-2-carboxylic acid amide]
> 1000 nM | C=CC(=O)Nc1ccc(-n2c(C(F)(F)F)nc3cc(OC)ccc32)cc1 [Compound 122, N-[4-(2-trifluoromethyl-5-methoxy-benzoimidazol-1-yl)-phenyl]-acrylamide]
> 1000 nM | COc1ccc2c(c1)nc(C(F)(F)F)n2-c1ccc(NC(=O)COCc2ccccc2)cc1 [Compound 123, 2-Benzyloxy-N-[4-(2-trifluoromethyl-5-methoxy-benzoimidazol-1-yl)-phenyl]-acetamide]
> 1000 nM | COc1ccc2c(c1)nc(C(F)(F)F)n2-c1ccc(NC(=O)CSc2ccccc2)cc1 [Compound 124, 2-Phenylsulfanyl-N-[4-(2-trifluoromethyl-5-methoxy-benzoimidazol-1-yl)-phenyl]-acetamide]
> 1000 nM | COc1ccc2c(c1)nc(C(F)(F)F)n2-c1ccc(NC(=O)c2ccccc2Cl)cc1 [Compound 126, 2-Chloro-N-[4-(2-trifluoromethyl-5-methoxy-benzoimidazol-1-yl)-phenyl]-benzamide]
> 1000 nM | COc1ccc2c(c1)nc(C(F)(F)F)n2-c1ccc(NC(=O)c2cc(C(F)(F)F)ccc2C(F)(F)F)cc1 [Compound 127, 2,5-Di-(trifluoromethyl)-N-[4-(2-trifluoromethyl-5-methoxy-benzoimidazol-1-yl)-phenyl]-benzamide]
